{"source": "patent US20240300975A1", "about": "“DIMETHYL-SUBSTITUTED THIAZOLOLACTAM COMPOUND AND USE THEREOF” (D3 Bio (Wuxi) Co., Ltd., priority 2021, published 2024)", "key": {"[1]": {"system": "human melanoma A375 cells", "assay": "In vivo efficacy in mouse model of human melanoma A375", "settings": "for TGI: PO, BID, day 21, A375 xenograft nude mouse", "description": "The anti-tumor effect of WX001 was evaluated using a subcutaneous xenograft tumor model of human melanoma A375 cells in nude mouse.\n• Species: mouse • Strain: BALB/c nude mouse • Age: 6-8 weeks old • Gender: female • Body weight: 18-22 grams • Supplier: Vital River Laboratory Animal Technology Co., Ltd.\n• 1) Assay cells and culture: Human melanomaA375 cells were cultured in monolayer in vitro. The culture conditions were DMEM medium plus 10% fetal bovine serum, and a 37° C. 5% CO2 incubator. Routine digestion with trypsin-EDTA was performed twice a week for passage. When the cell saturation was 80%-90% and the amount reached the requirement, the cells were harvested, counted, and inoculated; • 2) Tumor tissue inoculation and grouping: 0.1 mL (5×10^5) of A375 cells were subcutaneously inoculated into the right armpit of each mouse. When the average tumor volume reached 170 mm^3, the animals were randomly divided into 4 groups and the administration was started.\n• 3) Daily observation of assay animals: The development of this assay protocol and any modifications were evaluated and approved by the Institutional Animal Care and Use Committee (IACUC). The use and welfare of assay animals were carried out in accordance with the regulations of the Association for Assessment and Accreditation of Laboratory Animal Care (AAALAC). Animals were monitored daily for health and death. Routine examinations included observation of tumor growth and the effects of drug treatment on the animals' daily behavior such as behavioral activities, food and water intake (visual inspection only), weight changes (weight measurements twice a week), appearance signs or other abnormalities. Animal deaths and side effects in each group were recorded based on the number of animals in each group.\n• a) Vehicle group: 5% DMSO+95% (20% HP-β-CD). • b) Assay compound group: A quantitative amount of the assay compound was weighed in a formulation bottle. A corresponding volume of DMSO was added and then the mixture was vortexed to obtain a clear solution. A corresponding volume of 20% HP-β-CD was added and then the mixture was vortexed to obtain a homogeneous suspension.\n• a) Tumor diameter was measured twice a week with a vernier caliper. The calculation formula of tumor volume was: TV=1/2×a×b^2, wherein a and b represent the long and short diameters of tumor, respectively; • b) The tumor-inhibitory efficacy of the compound was evaluated by TGI (%). TGI (%) reflected the inhibition rate of tumor growth. TGI (%) was calculated as follows: TGI (%)={[1−(average tumor volume at the end of administration of a treatment group−average tumor volume at the beginning of administration of this treatment group)]/(average tumor volume at the end of treatment in a solvent control group−average tumor volume at the beginning of treatment in the solvent control group)}×100%."}, "[2]": {"assay": "In vivo PK study in SD rats", "settings": "male SD rats", "description": "Male SD rats were used as assay animals. After a single administration, the plasma concentration of the compound was measured and the pharmacokinetic behavior was evaluated.\nSix healthy adult male SD rats were selected, wherein 3 rats were in an intravenous injection group and 3 rats were in an oral group. The vehicle in the intravenous injection group was 5% DMSO+95% (20% HP-β-CD). The compound to be assayed was mixed with an appropriate amount of vehicle for intravenous injection, vortexed and sonicated to prepare a clear solution of 0.2 mg/mL. The clear solution was filtered by a microporous membrane, and then ready for use. The vehicle in the oral group was 5% DMSO+95% (20% HP-β-CD). The compound to be assayed was mixed with the vehicle, vortexed and sonicated to prepare a solution of 1 mg/mL. SD rats were administered 1 mg/kg intravenously or 10 mg/kg orally, and then whole blood was collected for a certain period. Plasma was prepared. The drug concentration was analyzed by LC-MS/MS method, and the pharmacokinetic parameters were calculated by Phoenix WinNonlin software (Pharsight, USA)."}, "[3]": {"assay": "In vivo PK study in cynomolgus monkeys", "settings": "male cynomolgus monkeys", "description": "Male cynomolgus monkeys were used as assay animals. After a single administration, the plasma concentration of the compound was measured and the pharmacokinetic behavior was evaluated.\nFive healthy adult male cynomolgus monkeys were selected, wherein 2 animals were in an intravenous injection group, and 3 animals were in an oral group. The vehicle in the intravenous injection group was 5% DMSO+95% (20% HP-β-CD). The compound to be assayed was mixed with an appropriate amount of vehicle for intravenous injection, and dissolved with stirring to prepare a clear solution of 0.4 mg/mL. The clear solution was filtered by a microporous membrane, and then ready for use. The vehicle in the oral group was 5% DMSO+95% (20% HP-β-CD). The compound to be assayed was mixed with the vehicle, and dissolved with stirring to prepare a solution of 0.3 mg/mL. Cynomolgus monkeys were administered 1 mg/kg intravenously or 3 mg/kg orally, and then whole blood was collected for a certain period. Plasma was prepared. The drug concentration was analyzed by LC-MS/MS method, and the pharmacokinetic parameters were calculated by Phoenix WinNonlin software (Pharsight, USA)."}}, "data": [{"smiles": "Cc1cccc(CN2C(=O)c3nc(-c4nc(Nc5ccnn5C)ncc4C)sc3C2(C)C)n1", "note": "[WX001]", "values": [{"measurement": "TGI", "setting": "[1]; 5 mg/kg", "result": 36, "unit": "%"}, {"measurement": "TGI", "setting": "[1]; 10 mg/kg", "result": 81, "unit": "%"}, {"measurement": "TGI", "setting": "[1]; 20 mg/kg", "result": 104, "unit": "%"}, {"measurement": "tolerance", "setting": "[1]; 5, 10, 20 mg/kg PO BID, during the administration", "result": "the tolerance is good"}, {"measurement": "body weight of animals", "setting": "[1]; 5, 10, 20 mg/kg PO BID, to the 21st day", "result": "did not decrease significantly"}, {"measurement": "Oral DNAUC (AUCPO/Dose)", "setting": "[2]; 10 mg/kg orally", "result": 302.12, "unit": "nM · h/mpk"}, {"measurement": "clearance", "setting": "[2]; rat, plasma, iv, 1 mg/kg intravenously", "result": 24.8, "unit": "mL/min/kg"}, {"measurement": "Vd", "setting": "[2]; rat, plasma, iv, 1 mg/kg intravenously, read-out: Vdss", "result": 1.06, "unit": "L/kg"}, {"measurement": "bioavailability", "setting": "[2]; rat, plasma, oral, 1 mg/kg intravenously / 10 mg/kg orally, read-out: F % (oral bioavailability)", "result": 21, "unit": "%"}, {"measurement": "half-life", "setting": "[2]; rat, plasma, single administration", "result": 2.6, "unit": "h"}, {"measurement": "Cmax", "setting": "[2]; rat, po, 10 mg/kg orally, plasma", "result": 1010, "unit": "nM"}, {"measurement": "clearance", "setting": "[3]; cynomolgus monkey, plasma, iv, 1 mg/kg intravenously", "result": 7.9, "unit": "mL/min/kg"}, {"measurement": "Vd", "setting": "[3]; cynomolgus monkey, plasma, iv, 1 mg/kg intravenously, read-out: Vdss", "result": 1.19, "unit": "L/kg"}, {"measurement": "bioavailability", "setting": "[3]; cynomolgus monkey, plasma, oral, 1 mg/kg intravenously / 3 mg/kg orally, read-out: F % (oral bioavailability)", "result": 41, "unit": "%"}, {"measurement": "half-life", "setting": "[3]; cynomolgus monkey, plasma, single administration", "result": 2, "unit": "h"}, {"measurement": "Cmax", "setting": "[3]; cynomolgus monkey, po, 3 mg/kg orally, plasma", "result": 1250, "unit": "nM"}, {"measurement": "Oral DNAUC (AUCPO/Dose)", "setting": "[3]; 3 mg/kg orally", "result": 1995.93, "unit": "nM · h/mpk"}]}]}
